This is an account of results in patent publication US20020128176A1, “Treatment of erectile dysfunctions with C-Type natriuretic polypeptide (CNP) as a monotherapy or in combination with phosphodiesterase inhibitors” (priority 1999, published 2002).

Data set [1] can be described thus: Tests made with male patients: induction of erection. The class given is in vivo, human. Conditions: for erection / time for which the erection was maintained: male patients.
The test system of data set [2] is smooth muscle of the human corpus cavernosum penis. The data set is described as follows: Functional organ bath studies: relaxation of norepinephrine-precontracted strip preparations of human cavernous muscles. How it is done: Functional organ bath studies:
Strip preparations of human cavernous muscles were fixed in the bath chambers of an organ bath plant (Isolated Organ Apparatus IOA 5306, Föhr Medical Instruments GmbH, Seeheim, Germany) filled with a modified Krebs-Ringer solution (NaCl 120 mM, NaHCO3 25.6 mM, KCl 4.7 mM, CaCl2 2.5 mM, NaH2PO4 1.2 mM, MgCl2 1.2 mM, glucose 22 mM, 2Na^+ (Ca^2+) EDTA 0.1 mM, pH 7.2-7.4). The temperature of the bath solution was controlled to 37° C., and a mixture of […] O2 and 5% CO2 was continuously sparkled through the solution. The application of a passive bias tension of 5 mN (0.5 g) was followed by an equilibration phase of 60 min. Subsequently, the muscle strips were stimulated with 6 μM norepinephrine (NOR). After a stable contraction plateau was reached, the peptides human atrial natriuretic peptide/cardiodilatin (ANP/CDD99-126) (for a survey, see Forssmann et al., 1998) and human C-type natriuretic peptide (CNP) (Ogawa et al., 1992), which are chemically synthesized in our laboratory, were added with cumulative dosage (0.01 to 1000 nM). Changes in the mechanical tension of the muscles were recorded with an analog-digital measured data acquisition system (MacLab®, AD Instruments, Castle Hill, Australia).

Where no end group is shown, it is not given here.

In the case of `CCCc1nn(C)c2c(=O)[nH]c(-c3cc(S(=O)(=O)N4CCN(C)CC4)ccc3OCC)nc12` [Sildenafil, reference compound], the “necessary dose for the induction of an erection” value in data set [1] (combined, simultaneous application of CNP) was “significantly decreased”. The “side-effects (flickering in the eyes or headaches)” value in data set [1] (some subjects, combined application with CNP versus exclusive Sildenafil treatment) is reported as “reduced, in part to complete disappearance”.

For the molecule “C-type natriuretic polypeptide (GLSKGCFGLKLDRIGSMSGLGC) [CNP, ligand of guanylate cyclase B]”, in data set [2] (strips precontracted with 6 μM norepinephrine, cumulative dosage 0.01 to 1000 nM), the “concentration from which a significant relaxant effect is seen” value was 1 nM. Also, the erection result in data set [1] (intracavernous application) and in data set [1] (intravenous application) was “immediate erection” in each case. The “time for which the erection was maintained” value in data set [1] (intracavernous application) and in data set [1] (intravenous application) was “about one” in each case.

“human atrial natriuretic peptide/cardiodilatin (SLRRSSCFGGRMDRIGAQSGLGCNSFRY; ends and bridges not checked; cysteine pairing not given here) [ANP/CDD99-126, Chemically synthesized peptide, the ligand of guanylate cyclase A, reference compound]”: in data set [2] (at corresponding concentrations (1 nM to 1 μM), precontracted with 6 μM norepinephrine), the “relaxation of precontracted smooth muscle (in words)” value is recorded as “no significant relaxation”.
